# Literature values as cited in patent publication US9457044B2, “Methods and compositions for wound healing” (CoDa Therapeutics, Inc., priority 2006, dated 2016).
# Conditions: cited from earlier work
Molecule,"effective dose when applied topically (U.S. Pat. No. 4,861,757)","concentration effective for wound healing by topical application to epithelial tissue (about 50 μl, Sotozono et al. 1995)"
PDGF,≥ 5 ng/mm^2,–
"KGF: keratinocyte growth factor (protein, UniProt P21781 32-194, looked up) Fibroblast growth factor 7: CNDMTPEQMATNVNCSSPERHTRSYDYMEGGDIRVRRLFCRTQWYLRIDKRGKVKGTQEMKNNYNIMEIRTVAVGIVAIKGVESEFYLAMNKEGKLYAKKECNEDCNFKELILENHYNTYASAKWTHNGGEMFVALNQKGIPVRGKKTKKEQKTAHFLPMAIT",–,about 5 μg/ml
